Assay results as given in article PMC6331810, “Novel Coumarin-Containing Aminophosphonatesas Antitumor Agent: Synthesis, Cytotoxicity, DNA-Binding and Apoptosis Evaluation” (Molecules, 2015).

How the values were obtained:
HCT-116 cells = test: Apoptosis and cell cycle analysis by flow cytometry (PI staining); assay type: cell-based, human; settings: HCT-116, 48 h at IC50 concentration
Method: Compared to the control (untreated cells), changes in the cell cycle distribution of treated HCT-116 cells were evident.
Figure 6 Inhibition of cell cycle progress in HCT-116 cells treated with compounds 8d, 8f, 8c and 8j for 48 h. Cells were fixed with ethanol and stained with PI. Cell cycle distribution was analyzed by flow cytometry. First peak represents sub-G1 peak, which was taken as the fraction of the apoptotic cell population. TEXT PRINTED IN THE PICTURE: 8d: Diploid: 100.00%; Dip G1: 87.24 % at 74.84; Dip G2: 7.42 % at 147.44; Dip S: 5.34 % | 8f: Diploid: 100.00%; Dip G1: 74.25 % at 73.13; Dip G2: 10.86 % at 144.07; Dip S: 14.89 % | 8c: Diploid: 100.00%; Dip G1: 82.72 % at 72.85; Dip G2: 6.28 % at 143.51; Dip S: 11.00% | 8j: Diploid: 100.00%; Dip G1: 15.12 % at 45.10; Dip G2: 52.47 % at 88.84; Dip S: 32.40%; Apoptosis: 4.01 % Mean: 33.84 | Control (−): Diploid: 100.00%; Dip G1: 35.32 % at 52.60; Dip G2: 19.20 % at 103.62; Dip S: 45.84% DOUBTS OF THE COPYIST ABOUT THIS PICTURE: Print is small throughout, so 3, 5, 6, 8 and 9 cannot be told apart with certainty in the values below; best readings are given. / 8d, Dip G1: 87.24 % at 74.84, the 8s uncertain / 8d, Dip S: 5.34, the 5 and 3 uncertain / 8f, Dip G2: 10.86 % at 144.07, the 8 and 6 uncertain / 8f, Dip S: 14.89, the 8 and 9 uncertain / 8c, Dip G1: 82.72 % at 72.85, the 8s and 5 uncertain / 8c, Dip G2: 6.28 % at 143.51, the 6, 8, 3 and 5 uncertain / 8j, Dip G2: 52.47 % at 88.84, the 5 and 8s uncertain / 8j, Apoptosis: 4.01 % Mean: 33.84, the 3s and 8 uncertain / Control (−), Dip G1: 35.32 % at 52.60, the 3s, 5s and 6 uncertain / Control (−), Dip G2: 19.20 % at 103.62, the 9, 3 and 6 uncertain / Control (−), Dip S: 45.84, the 5 and 8 uncertain / Control (−) is an untreated control, not a compound; it is included because results are printed with it. / G2/G1: 1.97 and %CV, printed in every plot, are left out as fit parameter and statistic.
Apoptosis was quantified by assessing the fraction of cells with sub-G1 DNA content by flow cytometry. The cells lines were treated with indicated concentrations of compounds […]. After incubated for 48 h, cells were washed twice with ice-cold PBS, fixed and permeabilized with ice-cold 70% ethanol at −20 °C overnight. The cells were treated with 100 μg/mL RNase A at 37 °C for 30 min after washed with ice-cold PBS, and finally stained with 1 mg/mL propidium iodide (PI) in the dark at 4 °C for 30 min. Analysis was performed with the system software (Cell Quest; BD Biosciences, Franklin Lakes, NJ, USA).

[1] = test system: Bax, Bcl-2, cytochrome c, caspase-9 and caspase-3 in HCT-116 cells; test: Western blot of apoptosis-related proteins; assay type: cell-based, human
Description: To confirm the molecular mechanisms involved in the observed apoptosis alterations, we investigated the effects of compound 8j on the expression of proteins important for mitochondria mediated apoptosis. Apoptosis occurs through two different pathways, that is the intrinsic and extrinsic pathways. Intrinsic pathway involves mitochondria that play a pivotal role in apoptosis, whereas extrinsic pathway is mediated by cell death receptors such as Fas, TNF α after receiving the death signal. It is well-known that the intrinsic pathway is regulated by the Bcl-2 family of pro- and anti- apoptotic proteins, which stimulate the permeabilization of the mitochondrial outer membrane and cytochrome c released into the cytosol, promoting in the activation of the caspase cascade and the induction of apoptotic cell death. […] Then, the roles of important caspases (caspase-9 and caspase-3) were investigated. […] Thus, compound 8j induced HCT-116 cells apoptosis might decrease the activation of Bcl-2 and stimulate its downstream proteins which are associated with the mitochondria-dependent apoptotic pathway.
Figure 7 Effect of compound 8j on cytochrome c release and levels of Bcl-2, Bax, Caspase-9 and Caspase-3. Equal amount of protein was loaded on SDS-PAGE gel for western blot analysis as described in experimental section. β-actin was used as an internal control.

[2] = test system: human KB (human nasopharyngeal carcinoma cells); test: MTT cytotoxicity assay, human KB; assay type: cell-based; settings: Homo sapiens, light or radiation study, 48 h, no irradiation, mean ± SD of three experiments
Method: Cell Lines. The following in vitro human cancer cell lines were used: HCT-116 (Human colorectal cells), human KB (human nasopharyngeal carcinoma cells), MGC-803 (human lung adenocarcinoma cell line), HUVEC (Human Umbilical Vein Endothelial Cells). The cell lines (HCT-116, KB, MGC-803 and HUVEC) were purchased from the Cell Resource Center of Shanghai Institutes for Biological Sciences, the Academy of Sciences of China.
Cell Culture. HCT-116, human KB, MGC-803 and HUVEC cells were cultured in Dulbecco Modified Eagle Medium (DMEM; HyClone, Los Angeles, CA, USA), containing 4.0 mM L-Glutamine and 4500 mg/L Glucose, supplemented with 10% (v/v) foetalbovine serum (FBS; HyClone). The cell culturemedia was supplemented with penicillin/streptomycin at 100 Units/mL as adherent monolayers. Cell cultures were kept in a humidified incubator with 5% CO2 at 37 °C. Stock solutions were prepared in dimethyl sulfoxide (DMSO) and further dilutions were made with fresh culture medium. The concentration of DMSO in the final culture medium was 1%, which had no effect on the cell viability.
MTT Assay. Chemosensitivity was assessed using 3-(4,5-dimethylthiazol-2-yl)-2,5-diphenyl tetrazolium bromide (MTT) assay. Briefly, exponentially growing HCT-116 (3000–4000 cells/well), human KB (2000–3000 cells/well) and MGC 803 (2000–3000 cells/well) were seeded into 96-well plates and treated with indicated concentrations of samples for 48 h, and then […] of MTT (10 mg/mL) was added. After incubation for 4 h at 37 °C, the purple formazan crystals (i.e., a reduced form of MTT) generated from viable cells were dissolved by adding 100 μL DMSO in each well. The plates were swirled gently for 10 min to dissolve the precipitate, and quantified by measuring the optical density (OD) of the plates at a wavelength of 490 nm on plate reader (TECAN infinite M1000). Each concentration was repeated in three wells and the same experimental conditions were provided for all compounds and MTT analysis was repeated three times for each cell line.

[3] = HCT-116, vs control cells, dose-dependent

SMILES	G1-phase population (HCT-116 cells; untreated cells 35.32%) [%]	Cytochrome c release ([1]; HCT-116, cytosol)	Levels of caspase-3 protein ([1]; HCT-116, vs control)	Levels of caspase-9 protein ([1]; HCT-116, vs control)	Expression of Bcl-2 [1, 3]	Levels of Bax [1, 3]	Cell cycle effect in words (HCT-116 cells)	IC50 [2] [nM]
CCOP(=O)(OCC)C(NC(=O)CCOc1ccc2c(C)cc(=O)oc2c1)c1cccc(Br)c1 (centres unmarked) [Compound 8f, Diethyl(3-(4-methyl-2-oxo-2H-chromen-7-yloxy)propanamido)(3-bromophenyl)methylphospho-nate]	74.25							
CCOP(=O)(OCC)C(C)(NC(=O)CCOc1ccc2c(C)cc(=O)oc2c1)c1ccccc1 (centres unmarked) [Compound 8j, Diethyl 1-(3-(4-methyl-2-oxo-2H-chromen-7-yloxy)propanamido)-1-phenylethylphosphonate]		accumulation of cytochrome c in the cytosol	marked increase	marked increase	decrease	significant increase	accumulation of cells in the G2 phase accompanying reduction in the G1 phase	80
